Entries after “also recorded” stand apart in the source; their conditions may differ. Like-named read-outs stand apart in the source and are kept apart here.
Columns and labels:
DLD-1 cells (KRAS^G13D) = assay: Cell viability (CellTiterGlo), DLD-1; assay type: cell-based, human; details: for effect on cell viability: DLD-1, 0–20 μM, up to 72 h; for IC50: Homo sapiens
Procedure: (§1) Fig. 5 Abd-7 results on RAS-dependent signalling pathways and cell viability. a, b DLD-1 (a) or H358 (b) cells were serum-starved for 24 h, incubated in mono-layer with Abd-7 in a range from 2, 5, 10 and 20 μM for 3 h and stimulated with EGF 10 min. Proteins were extracted and separated by SDS-PAGE and transferred to membranes for Western analysis with anti-pAKT, anti-pERK, anti-pan AKT and anti-pan ERK. Anti-cyclophilin B antibody was the loading control. Signal was developed using standard ECL. c–e Effects of compounds Abd-2, Abd-4, Abd-5, Abd-6, and Abd-7 on the viability of human cancer cells lines was assessed for a 2-D culture of DLD-1 (mutant KRAS^G13D) cells and HT1080 cells (mutant NRAS^Q61K). The cells were treated with a dose range from 0 μM to 20 μ and incubated for 72 h when cell viability was assessed using CellTitreGlo. […] Each experiment was repeated at least three times (a, b) and four times (c, d). Where error bars are presented, they correspond to mean values ± SD of biological repeats […]
(§2) Cancer cell lines were in seeded in ViewPlates-96 microplates (PerkinElmer). DLD-1 cells were plated at 10,000 cells per well and HT1080 cells at 7500 cells per well and cultured in DMEM, high glucose, GlutaMAX media containing 10% FBS at 37 °C in 5% CO2 atmosphere. Cells were cultured overnight and the compounds (dissolved in DMSO and diluted to 0.2% DMSO) were added to the cells at concentrations ranging from 0 to 20 μM. The cells were incubated under standard culture conditions for either 24, 48 or 72 h. Cell viability was as quantitated using the CellTiterGlo Luminescent Cell Viability Assay (Promega) according to the manufacturer’s instructions to measure ATP generated by metabolically active cells. Luminescent signals were measured using an Envision 2103 Multilabel Microplate Reader (PerkinElmer). The luminescence signals obtained from the compound-treated cells were normalized against the signal for DMSO-only treated cells. The IC50 values, calculated from the 48 and 72 h CellTiterGlo data, were generated by non-linear regression using the software GraphPad Prism 7.00 for windows (GraphPad Inc).
(§3) Supplementary Figure 7: The effect of Abd compounds on the viability of cancer cells The effect of the chemical series on the viability of human cancer cells lines DLD -1 (a colorectal cancer cell line with mutant KRAS
(§4) ) and HT1080 (a fibrosarcoma cell line with
(§5) ). The cells were treated with a dose range from […] of either
(§6) Abd-2, Abd-4, Abd-5, Abd-6 and Abd-7 and incubated for 24 or 48 hours. Cell viability was assessed using CellTitreGlo . In each case, the data are normalized to cells treated with DMSO only. Panels a and b are DLD-1 viability and panels c and d are HT1080 viability.
(§7) The IC50 for Abd-7 at 48 & 72 […]
(§8) hours are shown in panel f. Each experiment was repeated at least four times ( a to d).
(§9) Where error bars are presented, they correspond to mean values ± SD of biological repeats.
(§10) (1 picture or pasted object on this page, not shown here)

HT1080 cells (NRAS^Q61K) = assay: Cell viability (CellTiterGlo), HT1080; assay type: cell-based, human; details: for effect on cell viability: HT1080, 0–20 μM, up to 72 h; for IC50: Homo sapiens, HT-1080
Procedure: as §1, §2, §3, §4, §5, §6, §7, §8, §9, §10

[1] = target: T1, NRAS^Q61H interacting with PI3Kα, PI3Kγ, CRAF-RBD or full-length CRAF and RALGDS-RBD (Homo sapiens, UniProt P01111, Q61H); assay: BRET2 RAS-effector PPI assay, NRAS Q61H; assay type: cell-based; details: HEK293T, 5, 10 and 20 μM
T1 construct: Transfection vector encoded full-length RAS was fused to the donor molecule RLuc8; expressed in transfected cells; host or cells: HEK293T
Excerpt: Fig. 4 Abd-7 disrupting RAS-effector interactions. HEK293T cells were transfected with different BRET-based RAS biosensor expression vectors to evaluate the inhibition of RAS PPI in cells by compound Abd-7. Transfection vector encoded full-length RAS was fused to the donor molecule RLuc8 and the effectors fused to the acceptor molecule GFP[2]. a Effect of Abd-2 and Abd-7 on KRAS^G12D interaction with PI3Kα, PI3Kγ, CRAF or RALGDS. The BRET signal is plotted as a % of control cells treated with DMSO only and dose response to 5, 10 and 20 μM of each compound. b Effect of Abd-2 and Abd-7 on the BRET signal from interaction of KRAS^G12 mutants (Rluc8-KRAS^G12) and full-length CRAF (GFP[2]-CRAF FL). c, d Effect of Abd-2 and Abd-7 on the interaction of NRAS^Q61H (c) and HRAS^G12V (d) with various RAS effectors domain and with full-length CRAF. The BRET ratio corresponds to the light emitted by the GFP[2] acceptor constructs (515 nm ± 30) upon addition of Coelenterazine 400a divided by the light emitted by the RLuc8 donor constructs (410 nm ± 80). The normalized BRET ratio is the BRET ratio normalized to the DMSO negative and calculated as follows: (BRETcompound/BRETDMSO) x 100, where BRETcompound corresponds to the BRET ratio for the compound-treated cells, BRETDMSO to the DMSO-treated cells. Each experiment was repeated at least three times. […]

Row | effect on BRET signal, NRAS^Q61H with effectors [1] | IC50 (DLD-1 cells (KRAS^G13D); DLD-1, 72 h, read-out: IC50 cell viability) [µM] | IC50 (DLD-1 cells (KRAS^G13D); DLD-1, 48 h, Supplementary Fig. 7f, read-out: DLD-1 IC50 48h) [µM] | IC50 (DLD-1 cells (KRAS^G13D); DLD-1, 48 h as printed in discussion, read-out: IC50 cell viability) [µM] | IC50 (HT1080 cells (NRAS^Q61K); HT1080, 48 h, Supplementary Fig. 7f, read-out: HT1080 IC50 48h) [µM] | IC50 (HT1080 cells (NRAS^Q61K); HT1080, 48 h as printed in discussion, read-out: IC50 cell viability) [µM] | IC50 (HT1080 cells (NRAS^Q61K); HT1080, 72 h, read-out: IC50 cell viability) [µM] | SMILES | effect on cell viability (DLD-1 cells (KRAS^G13D)) | effect on cell viability (HT1080 cells (NRAS^Q61K))
1 |  |  |  |  |  |  |  | COc1cccc(-c2cccc3c2OC(CNC(=O)c2ccc(OCCN(C)C)cc2)CO3)n1 (centres unmarked) [Abd-5] | have an effect on the viability | have an effect on the viability
2 | does not |  |  |  |  |  |  | O=C(NCC1COc2ccccc2O1)c1ccco1 (centres unmarked) [Abd-2] | no effect on cell viability; also recorded: had not effect | no effect on cell viability; also recorded: had not effect
3 |  |  |  |  |  |  |  | COc1nc(-c2cccc3c2O[C@H](CNC(=O)C2CCOCC2)CO3)ccc1Nc1cccc(CN(C)C)c1 [Abd-6] | have an effect on the viability | have an effect on the viability
4 | interferes | 8 | 9.8 | ~8 | 9.4 | ~10 | 10 | COc1nc(-c2cccc3c2OCCO3)ccc1Nc1ccc(CN(C)C)cc1 [Abd-7] |  | 
